The nature of the experiment: Method for evaluating the neutralization of nitric oxide (amperometric probe, real time). The following applies: phosphate buffer pH 7.4, 25° C., between T1 and T2=T1+30 s, corrected for solvent control. As for the experimental part: For this, the nitric oxide is prepared in a separated container by achieving reduction of sodium nitrite with ferrous sulfate and carry away with a nitrogen gas stream into another container containing the product to be tested in solution in a buffer. In this solution, is placed an amperometric probe which measures in real time the current produced by the presence of nitric oxide in solution.
Nitric oxide is prepared extemporaneously in a container A, obturated with a flexible polymeric plug through which pass an entering tubing and an exiting tubing, with an inner diameter comprised between 50 μm and 300 μm, but particularly of 100 μm (cf. FIG. 1), with a volume comprised between 10 ml and 100 ml, but particularly of 30 ml, by adding a volume comprised between 0.1 and 2 ml, but particularly of 0.5 ml of an aqueous solution of sodium nitrite (NaNO2, ref. Sigma-Aldrich 237213) at a concentration comprised between 0.10% and 2.00% but particularly of 0.70%, at a volume comprised between 5 ml and 80 ml of the following aqueous solution:
The container B in which is measured the nitric oxide is a container opaque to light, with a double jacket allowing circulation of water maintaining the temperature at 25° C., obturated with a plug through which pass the tubing stemming from the container A and an exhaust tubing (cf. FIG. 1) with a volume comprised between 10 ml and 100 ml, preferably 30 ml which receives a volume comprised between 5 ml and 80 ml, preferably 20 ml, of an aqueous solution of phosphate buffer at pH 7.4.
Once they are mixed, the solutions are stirred for the whole period of the measurement with a magnetic stirrer, in container A and in container B.
Nitrogen gas is admitted at a flow rate comprised between 20 ml/min and 120 ml/min, preferably 80 ml/min in the bottom of the container A. The nitrogen thereby carries away the nitric oxide through the exiting tubing of container A as far as into container B where it is measured with a device provided for this purpose equipped with an amperometric probe provided with a specific membrane (apparatus of ref. TBR 1025 from World Precision Instruments, probe ISO-NOP). The probe thereby delivers a variable current between 10 and 1,000 nA proportional to the concentration of nitric oxide in the tested solution, of the order of magnitude of μM. The electric current produced by the probe under the influence of nitric oxide is recorded with a suitable device.
Before any measurement, the probe is calibrated by measuring the current produced by releasing known increasing amounts of nitric oxide. It is thus checked that there exists a linear relationship between the electric current produced by the probe and the molar concentration of nitric oxide and the correspondence between this electric current and the molar concentration of nitric oxide is determined. For this, 20 ml of the following aqueous solution is placed in the container B disconnected from the container A during the calibration period:
50 μl, 100 μl, 150 μl and 200 μl of a solution of sodium nitrite (NaNO2, ref. Sigma-Aldrich 237213) are then successively added to a concentration of 360 μM.
The curve giving the correspondence between the nitric oxide concentration in the reaction medium and the electric intensity produced by the probe expressed in nA is plotted for each addition of the nitric oxide solution.
During a typical measurement, 20 ml of the ferrous sulfate solution are placed in the container A and 20 ml of phosphate buffer at pH 7.4 are placed in the container B. In the container A, nitrogen gas is admitted for 10 mins, which passes in transit towards the container B, in order to remove the dissolved oxygen present in the solutions of the containers A and B. After these 10 mins, the recording of the measurement of nitric oxide is launched.
At time T0, the sodium nitrite solution is injected into the container A through the flexible polymeric plug by means of a syringe equipped with a needle.

On to (+) catechin hydrate, for which the “E, neutralization effect of nitric oxide (nitric oxide neutralized per second and per mg of product)” value is 0.13 µM/s/mg.

`O=C(/C=C/c1ccc(O)c(O)c1)O[C@H](Cc1ccc(O)c(O)c1)C(=O)O` [Rosmarinic acid]: the “E, neutralization effect of nitric oxide (nitric oxide neutralized per second and per mg of product)” value is 0.043 µM/s/mg.

As to `C[C@@H]1O[C@@H](O[C@@H]2[C@@H](O)[C@H](OCCc3ccc(O)c(O)c3)O[C@H](CO)[C@H]2OC(=O)/C=C/c2ccc(O)c(O)c2)[C@H](O)[C@H](O)[C@H]1O` [Verbascoside], the “E, neutralization effect of nitric oxide (nitric oxide neutralized per second and per mg of product)” value worked out at 0.058 µM/s/mg.

With `O=C(O)/C=C/c1ccc(O)cc1` [p-coumaric acid], the “E, neutralization effect of nitric oxide (nitric oxide neutralized per second and per mg of product)” value turned out to be 0.13 µM/s/mg.

As for `O=C(O)/C=C\C1=CC(=O)C(=O)C=C1` [caffeoyl-quinone, ortho-quinone of caffeic acid], the “E, neutralization effect of nitric oxide (nitric oxide neutralized per second and per mg of product)” value came to 24.36 µM/s/mg.

Turning to `O=C(O)/C=C/c1ccc(O)c(O)c1` [Caffeic acid], the “E, neutralization effect of nitric oxide (nitric oxide neutralized per second and per mg of product)” value was found to be 0.957 µM/s/mg.

Regarding `O=c1cc(-c2ccc(O)c(O)c2)oc2cc(O)cc(O)c12` [Luteolin], the “E, neutralization effect of nitric oxide (nitric oxide neutralized per second and per mg of product)” value is 0.174 µM/s/mg.

With `O.O.O=c1c(O)c(-c2ccc(O)c(O)c2)oc2cc(O)cc(O)c12` [Quercetin, Quercetin dihydrate], the “E, neutralization effect of nitric oxide (nitric oxide neutralized per second and per mg of product)” value was 0.087 µM/s/mg.

Source of the values: patent publication US20170369414A1, “O-Quinone Compounds as Agents Neutralising Nitric Oxide” (Institut des Substances Végétales, priority 2015, published 2017).
